The structures appear in SMILES notation. pKi: −log10 of the molar value. Counter-ions that a name gives are not always drawn.

What is called pKi is −log10 of the Ki, conventionally taken in molar units.

In this test the target is T1, human sigma 1 receptor (Homo sapiens, UniProt Q99720).
T1 construct: expressed in transfected cells; host or cells: HEK-293
T1 sequence (Q99720 whole entry): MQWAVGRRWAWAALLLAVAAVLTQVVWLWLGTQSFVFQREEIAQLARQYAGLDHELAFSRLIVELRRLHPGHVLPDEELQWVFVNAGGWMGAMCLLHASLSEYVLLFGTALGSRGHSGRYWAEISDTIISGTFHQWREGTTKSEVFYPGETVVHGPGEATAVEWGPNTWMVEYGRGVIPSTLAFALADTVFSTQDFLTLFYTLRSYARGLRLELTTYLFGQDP
Description: Human Sigma 1 Receptor Radioligand Assay. The class given is binding. Particulars: [3H](+)-pentazocine radioligand 5 nM; transfected HEK-293 membranes; 37° C., 120 minutes. As for the experimental part: Human Sigma 1 Receptor Radioligand Assay
To investigate binding properties of sigma 1 receptor ligands to human sigma 1 receptor, transfected HEK-293 membranes and [^3H](+)-pentazocine (Perkin Elmer, NET-1056), as the radioligand, were used. The assay was carried out with 7 μg of membrane suspension, 5 nM of [^3H](+)-pentazocine in either absence or presence of either buffer or 10 μM Haloperidol for total and non-specific binding, respectively. Binding buffer contained Tris-HCl 50 mM at pH 8. Plates were incubated at 37° C. for 120 minutes. After the incubation period, the reaction mix was then transferred to MultiScreen HTS, FC plates (Millipore), filtered and plates were washed 3 times with ice-cold 10 mM Tris-HCL (pH 7.4). Filters were dried and counted at approximately 40% efficiency in a MicroBeta scintillation counter (Perkin-Elmer) using EcoScint liquid scintillation cocktail.
Molecule `c1ccc(OC[C@@H]2CC[C@@H]2CN2CCCC2)cc1` [Example 1, 1-(((1S,2R)-2-(Phenoxymethyl)cyclobutyl)methyl)pyrrolidine] had a negative-log Ki (pKi) of 8.15.

Turning to `CC1CCN(C[C@H]2CC[C@H]2COc2ccccc2)CC1` [Example 3, 4-Methyl-1-(((1S,2R)-2-(phenoxymethyl)cyclobutyl)methyl)piperidine], the pKi was 8.55. Compared with the last molecule, the pKi is 0.40 log units higher.

As to `Clc1ccc(-n2ccc(OC[C@@H]3CC[C@@H]3CN3CCCC3)n2)cc1Cl` [Example 13, 1-(3,4-Dichlorophenyl)-3-(((1R,2S)-2-(pyrrolidin-1-ylmethyl)cyclobutyl)methoxy)-1H-pyrazole], the pKi was 7.78.

`Cc1cc(OC[C@@H]2CC[C@@H]2CN2CCCC2)nn1-c1ccc(Cl)c(Cl)c1` [Example 15, 1-(3,4-Dichlorophenyl)-5-methyl-3-(((1R,2S)-2-(pyrrolidin-1-ylmethyl)cyclobutyl)methoxy)-1H-pyrazole]: the pKi is 7.30.

Take `Cc1cc(OC[C@@H]2CC[C@@H]2CN2CCOCC2)nn1-c1ccc(Cl)c(Cl)c1` [Example 16, 4-(((1S,2R)-2-(((1-(3,4-Dichlorophenyl)-5-methyl-1H-pyrazol-3-yl)oxy)methyl)cyclobutyl)methyl)morpholine]: the pKi is 6.75. Against the preceding molecule, the pKi is 0.55 log units lower.

Take `c1ccc(OC[C@@H]2CC[C@@H]2CN2CCOCC2)cc1` [Example 17, 4-(((1S,2R)-2-(Phenoxymethyl)cyclobutyl)methyl)morpholine hydrochloride]: the pKi was 7.47.

In turn, `Clc1ccc(OC[C@@H]2CC[C@@H]2CN2CCCC2)cc1Cl` [Example 18, 1-(((1S,2R)-2-((3,4-Dichlorophenoxy)methyl)cyclobutyl)methyl)pyrrolidine hydrochloride] showed a pKi of 8.64.

As to `Clc1ccc(OC[C@@H]2CC[C@@H]2CN2CCOCC2)cc1Cl` [Example 19, 4-(((1S,2R)-2-((3,4-Dichlorophenoxy)methyl)cyclobutyl)methyl)morpholine hydrochloride], the pKi was 8.43.

In turn, `CC1CCN(C[C@H]2CC[C@H]2COc2ccc(Cl)c(Cl)c2)CC1` [Example 20, 1-(((1S,2R)-2-((3,4-Dichlorophenoxy)methyl)cyclobutyl)methyl)-4-methylpiperidine hydrochloride] showed a pKi of 8.32.

Molecule `Cn1nc(OC[C@@H]2CC[C@@H]2CN2CCCC2)cc1C(F)(F)F` [Example 21, 1-Methyl-3-(((1R,2S)-2-(pyrrolidin-1-ylmethyl)cyclobutyl)methoxy)-5-(trifluoromethyl)-1H-pyrazole hydrochloride] gave a pKi of 7.72.

Consider `Cn1nc(OC[C@@H]2CC[C@@H]2CN2CCOCC2)cc1C(F)(F)F` [Example 22, 4-(((1S,2R)-2-(((1-Methyl-5-(trifluoromethyl)-1H-pyrazol-3-yl)oxy)methyl)cyclobutyl)methyl)morpholine hydrochloride], for which the pKi was 8.25.

Regarding `Cn1nc(C(F)(F)F)cc1OC[C@@H]1CC[C@@H]1CN1CCCC1` [Example 23, 1-Methyl-5-(((1R,2S)-2-(pyrrolidin-1-ylmethyl)cyclobutyl)methoxy)-3-(trifluoromethyl)-1H-pyrazole hydrochloride], the pKi is 7.52.

For the molecule `Clc1ccc(-n2ccc(OC[C@@H]3CC[C@@H]3CN3CCCC3)n2)cc1Cl` [Example 25, 1-(3,4-Dichlorophenyl)-3-(((1R,2S)-2-(pyrrolidin-1-ylmethyl)cyclobutyl)methoxy)-1H-pyrazole hydrochloride], the pKi is 7.69.

Take `Clc1ccc(-n2ccc(OC[C@@H]3CC[C@@H]3CN3CCOCC3)n2)cc1Cl` [Example 26, 4-(((1S,2R)-2-(((1-(3,4-Dichlorophenyl)-1H-pyrazol-3-yl)oxy)methyl)cyclobutyl)methyl)morpholine hydrochloride]: the pKi was 7.87.

With `Cc1cc(OC[C@@H]2CC[C@@H]2CN2CCCC2)nn1-c1ccc(Cl)c(Cl)c1` [Example 27, 1-(3,4-Dichlorophenyl)-5-methyl-3-(((1R,2S)-2-(pyrrolidin-1-ylmethyl)cyclobutyl)methoxy)-1H-pyrazole hydrochloride], the pKi is 7.14. This pKi lies 0.73 log units lower than the previous one.

In the case of `Clc1ccc(-n2ccc(OC[C@@H]3CC[C@H]3CN3CCCC3)n2)cc1Cl` [Example 28], the pKi was 6.98. The pKi values of the last two molecules are within 0.2 log units of each other.

Take `Cc1cc(OC[C@@H]2CC[C@H]2CN2CCCC2)nn1-c1ccc(Cl)c(Cl)c1` [Example 29, 1-(3,4-Dichlorophenyl)-5-methyl-3-(((1R,2R)-2-(pyrrolidin-1-ylmethyl)cyclobutyl)methoxy)-1H-pyrazole]: the pKi is 6.95.

`Cc1cc(OC[C@@H]2CC[C@H]2CN2CCOCC2)nn1-c1ccc(Cl)c(Cl)c1` [Example 30, 4-(((1R,2R)-2-(((1-(3,4-Dichlorophenyl)-5-methyl-1H-pyrazol-3-yl)oxy)methyl)cyclobutyl)methyl)morpholine] had a pKi of 6.24. Against the preceding molecule, the pKi is 0.71 log units lower.

In the case of `Cn1nc(OC[C@@H]2CC[C@H]2CN2CCCC2)cc1C(F)(F)F` [Example 32, 1-Methyl-3-(((1R,2R)-2-(pyrrolidin-1-ylmethyl)cyclobutyl)methoxy)-5-(trifluoromethyl)-1H-pyrazole hydrochloride], the pKi is 7.76.

Turning to `Cn1nc(OC[C@H]2CC[C@H]2CN2CCCC2)cc1C(F)(F)F` [Example 34, 1-Methyl-3-(((1S,2R)-2-(pyrrolidin-1-ylmethyl)cyclobutyl)methoxy)-5-(trifluoromethyl)-1H-pyrazole hydrochloride], the pKi is 7.55.

For the molecule `Cc1cc(OC[C@H]2CC[C@@H]2CN2CCOCC2)nn1-c1ccc(Cl)c(Cl)c1` [Example 36, 4-(((1S,2S)-2-(((1-(3,4-Dichlorophenyl)-5-methyl-1H-pyrazol-3-yl)oxy)methyl)cyclobutyl)methyl)morpholine], the pKi was 6.33.

Consider `Cn1nc(OC[C@H]2CC[C@@H]2CN2CCCC2)cc1C(F)(F)F` [Example 38, 1-Methyl-3-(((1S,2S)-2-(pyrrolidin-1-ylmethyl)cyclobutyl)methoxy)-5-(trifluoromethyl)-1H-pyrazole hydrochloride], for which the pKi was 7.12.

In turn, `CCN(CC)C[C@H]1CC[C@@H]1COc1ccccc1` [Example 39, N,N-Diethyl-N-(((1S,2S)-2-(phenoxymethyl)cyclobutyl)methyl)ethanamine hydrochloride] showed a pKi of 7.40.

Values taken from US9464069B2, “1,2-disubstituted cyclobutyl compounds” (LABORATORIOS DEL DR. ESTEVE S.A., priority 2013, dated 2016).
